According to PMC11240257, “Engineered Methionine Adenosyltransferase Cascades for Metabolic Labeling of Individual DNA Methylomes in Live Cells” (Journal of the American Chemical Society, 2024):
Like-named read-outs stand apart in the source and are kept apart here.

Legend:
Test in all cases: HPLC-MS/MS quantitation of accumulated cofactor, steady state
Format in all cases: biochemical
Details in all cases: co-substrate ATP
[1] = biological target: T1, mouse MAT2A (Mus musculus, UniProt Q3THS6, Q113N/I117A)
T1 construct: recombinant, produced in vitro from bacterial cells; monogenic multimer without MAT2B
T1 sequence (Q3THS6 whole entry Q113N/I117A): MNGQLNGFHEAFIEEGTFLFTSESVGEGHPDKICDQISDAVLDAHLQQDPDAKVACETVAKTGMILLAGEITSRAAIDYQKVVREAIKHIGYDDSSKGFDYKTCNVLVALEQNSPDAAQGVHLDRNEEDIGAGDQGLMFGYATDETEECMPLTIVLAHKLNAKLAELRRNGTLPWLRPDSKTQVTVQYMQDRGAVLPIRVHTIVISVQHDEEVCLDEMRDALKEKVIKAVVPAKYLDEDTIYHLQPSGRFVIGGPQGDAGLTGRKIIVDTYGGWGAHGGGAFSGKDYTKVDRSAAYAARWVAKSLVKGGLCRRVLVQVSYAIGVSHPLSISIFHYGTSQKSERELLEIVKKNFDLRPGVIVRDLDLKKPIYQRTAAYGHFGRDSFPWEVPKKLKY
Text: (§1) HPLC-MS/MS quantitation of accumulated cofactor, steady state on mouse MAT2A

[2] = biological target: T2, mouse MAT2A (Mus musculus, UniProt Q3THS6, I117A)
T2 construct: recombinant, produced in vitro from bacterial cells; monogenic multimer without MAT2B
T2 sequence (Q3THS6 whole entry I117A): as the sequence (Q3THS6 whole entry Q113N/I117A) above, with N113Q counted along it
Text: as §1

[3] = biological target: T3, mouse MAT2A (Mus musculus, UniProt Q3THS6, S114A/I117A)
T3 construct: recombinant, produced in vitro from bacterial cells; monogenic multimer without MAT2B
T3 sequence (Q3THS6 whole entry S114A/I117A): as the sequence (Q3THS6 whole entry Q113N/I117A) above, with N113Q, S114A counted along it
Text: as §1

[4] = biological target: T4, mouse MAT2A (Mus musculus, UniProt Q3THS6)
T4 construct: recombinant, produced in vitro from bacterial cells; monogenic multimer without MAT2B
T4 sequence (Q3THS6 whole entry): as the sequence (Q3THS6 whole entry Q113N/I117A) above, with N113Q, A117I counted along it
Text: as §1

Row | Km ([1]; read-out: Km /) [mM] | Km ([2]; read-out: Km /) [mM] | Km ([3]; read-out: Km /) [mM] | Km ([4]; read-out: Km /) [mM] | SMILES | Km ([1]; read-out: Km / mM) [mM] | Km ([2]; read-out: Km / mM) [mM] | Km ([3]; read-out: Km / mM) [mM] | Km ([4]; read-out: Km / mM) [mM]
1 | 1.4 ± 0.56 | 0.645 ± 0.023 | 1.4 ± 0.41 | 0.02 ± 0.003 | CSCC[C@H](N)C(=O)O [Met, L-methionine] | – | – | – | –
2 | – | – | – | – | [N-]=[N+]=NCCCC#CCSCC[C@H](N)C(=O)O [N3-Met, S-(6-azidohex-2-yn-1-yl)-L-homocysteine] | 1.44 ± 0.27 | 0.92 ± 0.1 | 1.52 ± 0.043 | 1.03 ± 0.23
